The text below walks through data of the Kinase Knowledgebase extract (Sharma et al. 2016).

EGFR, sequence (P00533 whole entry, looked up): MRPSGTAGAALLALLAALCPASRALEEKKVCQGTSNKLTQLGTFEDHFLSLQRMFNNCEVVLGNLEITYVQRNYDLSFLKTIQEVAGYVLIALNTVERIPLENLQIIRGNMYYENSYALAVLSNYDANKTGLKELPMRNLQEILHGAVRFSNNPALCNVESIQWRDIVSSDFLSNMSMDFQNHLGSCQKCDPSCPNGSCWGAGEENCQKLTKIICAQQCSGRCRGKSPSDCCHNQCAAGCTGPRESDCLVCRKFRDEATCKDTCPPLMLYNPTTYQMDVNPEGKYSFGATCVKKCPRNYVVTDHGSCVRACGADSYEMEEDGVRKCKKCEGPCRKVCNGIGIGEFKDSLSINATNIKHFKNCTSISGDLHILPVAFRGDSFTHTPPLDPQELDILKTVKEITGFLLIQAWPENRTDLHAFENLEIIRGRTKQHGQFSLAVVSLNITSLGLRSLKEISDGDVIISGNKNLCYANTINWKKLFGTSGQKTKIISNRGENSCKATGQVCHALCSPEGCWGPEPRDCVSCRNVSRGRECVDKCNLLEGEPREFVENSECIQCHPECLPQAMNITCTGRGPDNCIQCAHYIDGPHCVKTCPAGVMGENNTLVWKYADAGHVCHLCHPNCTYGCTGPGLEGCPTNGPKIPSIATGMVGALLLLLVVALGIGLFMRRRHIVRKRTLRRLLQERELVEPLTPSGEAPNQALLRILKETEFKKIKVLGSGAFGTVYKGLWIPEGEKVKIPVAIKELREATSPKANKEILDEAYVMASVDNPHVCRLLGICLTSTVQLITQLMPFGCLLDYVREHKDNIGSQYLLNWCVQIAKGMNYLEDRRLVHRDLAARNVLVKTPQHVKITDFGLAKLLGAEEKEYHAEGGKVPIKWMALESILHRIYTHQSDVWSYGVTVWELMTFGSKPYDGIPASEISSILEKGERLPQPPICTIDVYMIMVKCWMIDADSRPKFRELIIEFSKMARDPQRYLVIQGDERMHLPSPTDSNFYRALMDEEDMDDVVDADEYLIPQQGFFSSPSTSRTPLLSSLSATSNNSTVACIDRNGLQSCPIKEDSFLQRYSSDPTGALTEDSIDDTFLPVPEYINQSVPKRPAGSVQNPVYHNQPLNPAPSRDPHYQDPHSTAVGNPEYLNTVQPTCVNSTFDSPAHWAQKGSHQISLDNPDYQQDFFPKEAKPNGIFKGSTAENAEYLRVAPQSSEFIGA

This assay concerns the target EGFR (UniProt P00533).
`COc1cc2c(Nc3ccc(Cl)c(Cl)c3)ncnc2cc1OCc1nc2c(s1)CNCC2` registered an IC50 of under 50 nM.

Consider `C#CCN1CCOC(COc2cc3ncnc(Nc4ccc(Cl)c(Cl)c4)c3cc2OC)C1` (stereo unspecified), for which the IC50 is under 50 nM.

The molecule `COc1cc2c(Nc3ccc(Br)c(Cl)c3Cl)ncnc2cc1OCC1CN(C)C(C)(C)CO1` (stereo unspecified) registered an IC50 of under 50 nM.

`COc1cc2c(Nc3ccc(Br)c(Cl)c3)ncnc2cc1O[C@H]1CO[C@@H]2[C@H]1OC[C@@H]2O`: the IC50 was under 50 nM.

Molecule `COc1cc2c(Nc3ccc(Cl)c(Cl)c3)ncnc2cc1OCC(=O)N1CCOCC1` yielded a half-maximal inhibitory concentration (IC50) of under 50 nM.

In turn, `COc1cc2c(Nc3ccc(Br)c(Cl)c3)ncnc2cc1O[C@@H]1CO[C@@H]2[C@H]1OC[C@H]2NS(C)(=O)=O` returned an IC50 of under 50 nM.

Take `COc1cc2c(Nc3cc(Cl)c(Cl)cc3F)ncnc2cc1OCC1CN(C)C(C)(C)CO1` (stereo unspecified): the IC50 is under 50 nM.

The molecule `COc1cc2c(Nc3ccc(Br)c(Cl)c3F)ncnc2cc1OC[C@@H]1CN2CCC[C@H]2CO1` displayed an IC50 of under 50 nM.

`COc1cc2c(Nc3ccc(Cl)c(Cl)c3)ncnc2cc1OCC1CN(CC2CC2)CCCO1` (stereo unspecified): the IC50 is under 50 nM.

Molecule `COc1cc2c(Nc3ccc(Br)c(C)c3)ncnc2cc1OCC1CN(C)CCO1` (stereo unspecified) came in with an IC50 of under 50 nM.

`C=CCN1CCOC(COc2cc3ncnc(Nc4ccc(Cl)c(Cl)c4)c3cc2OC)C1` (stereo unspecified) came in with a 50% inhibitory concentration (IC50) of under 50 nM.

`COc1cc2c(Nc3cc(Cl)c(Cl)cc3F)ncnc2cc1OCC1CN(C)CCO1` (stereo unspecified) gave an IC50 of under 50 nM.

Molecule `COc1cc2c(Nc3ccc(Cl)c(Cl)c3)ncnc2cc1OCC1CN(CC(=O)c2ccccc2)CCO1` (stereo unspecified) had an IC50 of under 50 nM.

As to `COc1cc2c(Nc3ccc(Cl)c(Cl)c3)ncnc2cc1OCC1CN(C(C)C)CCO1` (stereo unspecified), the 50% inhibitory concentration (IC50) was under 50 nM.

The molecule `COc1cc2c(Nc3c(F)cc(F)cc3F)ncnc2cc1O[C@@H]1CO[C@@H]2[C@H]1OC[C@H]2F` registered a half-maximal inhibitory concentration (IC50) of under 50 nM.

On to `COc1cc2c(Nc3ccc(Cl)c(Cl)c3)ncnc2cc1OCCC1CN(C)CC(C)(C)O1` (stereo unspecified), for which the half-maximal inhibitory concentration (IC50) was under 50 nM.

With `CCCCC(CC)C(=O)N1CCOC(COc2cc3ncnc(Nc4ccc(Cl)c(Cl)c4)c3cc2OC)C1` (stereo unspecified), the 50% inhibitory concentration (IC50) was under 50 nM.

`COc1cc2c(Nc3ccc(Cl)c(Cl)c3)ncnc2cc1OCc1nc(CS(=O)(=O)c2ccccn2)no1` yielded a concentration for half-maximal inhibition (IC50) of under 50 nM.

As for `COc1cc2c(Nc3ccc(Cl)c(Cl)c3)ncnc2cc1OC1C[C@@H]2CN(C)C[C@@H]2C1` (stereo partly specified), the half-maximal inhibitory concentration (IC50) was under 50 nM.

For `COc1cc2c(Nc3ccc(Cl)c(Cl)c3)ncnc2cc1OCC1CN(C(=O)c2c(C)noc2C)CCO1` (stereo unspecified), the concentration for half-maximal inhibition (IC50) was under 50 nM.

For `COc1cc2c(Nc3ccc(Br)c(Cl)c3)ncnc2cc1O[C@H]1CO[C@@H]2[C@H]1OC[C@@H]2SC`, the IC50 is under 50 nM.

As for `COc1cc2c(Nc3ccccc3F)ncnc2cc1O[C@@H]1CO[C@@H]2[C@H]1OC[C@H]2F`, the half-inhibitory concentration (IC50) is under 50 nM.

Molecule `COc1cc2c(Nc3ccc(Cl)c(Cl)c3)ncnc2cc1OCc1csc(C2CCCNC2)n1` (stereo unspecified) had an IC50 of under 50 nM.

For `COc1cc2c(Nc3ccc(Cl)c(Cl)c3F)ncnc2cc1OC[C@H]1CN2CCOC[C@H]2CO1`, the IC50 was under 50 nM.

On to `COc1cc2c(Nc3ccc(F)c(F)c3)ncnc2cc1O[C@@H]1CO[C@@H]2[C@H]1OC[C@H]2F`, for which the IC50 is under 50 nM.

For the molecule `COc1cc2c(Nc3ccc(Cl)c(Cl)c3)ncnc2cc1OCC1CN(C(=O)CC(=O)O)CCO1` (stereo unspecified), the half-inhibitory concentration (IC50) is under 50 nM.

Consider `COc1cc2c(Nc3ccc(Cl)c(Cl)c3)ncnc2cc1OCC1CN(C2CCN(C)CC2)CCO1` (stereo unspecified), for which the half-inhibitory concentration (IC50) was under 50 nM.

`COc1cc2c(Nc3ccc(Cl)c(Cl)c3F)ncnc2cc1OCC1CN(C)CCO1` (stereo unspecified) returned a half-inhibitory concentration (IC50) of under 50 nM.

For `COc1cc2c(Nc3ccc(Cl)c(Cl)c3N3CCN(C)CC3)ncnc2cc1O[C@H]1CO[C@@H]2[C@H]1OC[C@@H]2F`, the half-maximal inhibitory concentration (IC50) is under 50 nM.

On to `COc1cc2c(Nc3ccc(Cl)c(Cl)c3)ncnc2cc1OCc1noc(-c2ccccc2OC)n1`, for which the 50% inhibitory concentration (IC50) is under 50 nM.

`COc1cc2c(Nc3ccc(Cl)c(Cl)c3)ncnc2cc1OCC1CN(S(=O)(=O)c2ccccc2)CCO1` (stereo unspecified) displayed an IC50 of under 50 nM.

Consider `CCN1CCC(c2nc(COc3cc4ncnc(Nc5ccc(Cl)c(Cl)c5)c4cc3OC)no2)CC1`, for which the IC50 was under 50 nM.

In turn, `CCC#CCN1CCOC(COc2cc3ncnc(Nc4ccc(Cl)c(Cl)c4)c3cc2OC)C1` (stereo unspecified) registered a concentration for half-maximal inhibition (IC50) of under 50 nM.

With `COc1cc2c(Nc3ccc(F)c(C(F)(F)F)c3)ncnc2cc1O[C@@H]1CO[C@@H]2[C@H]1OC[C@H]2F`, the half-inhibitory concentration (IC50) is under 50 nM.

For the molecule `COc1cc2c(Nc3ccc(Cl)c(Cl)c3)ncnc2cc1OCc1nc(N2CCOCC2)no1`, the IC50 was under 50 nM.

In turn, `COc1cc2c(Nc3ccc(Br)c(Cl)c3Cl)ncnc2cc1OCC1CN(C)CCO1` (stereo unspecified) displayed a concentration for half-maximal inhibition (IC50) of under 50 nM.

The molecule `COc1cc2c(Nc3ccc(Cl)c(Cl)c3)ncnc2cc1OCC1CN(C(C)C(C)=O)CCO1` (stereo unspecified) showed a 50% inhibitory concentration (IC50) of under 50 nM.

Molecule `COc1cc2c(Nc3ccc(Cl)c(Cl)c3)ncnc2cc1OCC1CN(C(=O)c2cccc3ccccc23)CCO1` (stereo unspecified) had a concentration for half-maximal inhibition (IC50) of under 50 nM.

`COc1cc2c(Nc3ccc(Cl)c(Cl)c3)ncnc2cc1OCc1nc(N2CCN(C(=O)OC(C)(C)C)CC2)no1` displayed a half-inhibitory concentration (IC50) of under 50 nM.

`COc1cc2c(Nc3ccc(Br)c(F)c3F)ncnc2cc1OCC1CN(C)CCO1` (stereo unspecified) returned a 50% inhibitory concentration (IC50) of under 50 nM.

On to `COc1cc2c(Nc3ccc(Cl)c(Cl)c3)ncnc2cc1OCC1CN(C)C(C)(C)C(=O)O1` (stereo unspecified), for which the IC50 is under 50 nM.

`COc1cc2c(Nc3ccc(Cl)c(Cl)c3)ncnc2cc1OCC1CN(C(=O)C(C)(C)C)CCO1` (stereo unspecified) gave an IC50 of under 50 nM.

`COc1cc2c(Nc3ccc(Cl)c(Cl)c3)ncnc2cc1OCC1CN(C(N)=NC#N)CCO1` (stereo unspecified) registered an IC50 of under 50 nM.

Take `COc1cc2c(Nc3ccc(F)c(Cl)c3F)ncnc2cc1OC[C@H]1CN2CCOC[C@H]2CO1`: the IC50 is under 50 nM.

Take `COc1cc2c(Nc3ccc(Cl)c(Cl)c3)ncnc2cc1OCC1CN(C(=O)c2ccc(Cl)nc2)CCO1` (stereo unspecified): the IC50 is under 50 nM.

Molecule `COc1cc2c(Nc3ccc(Br)c(Cl)c3)ncnc2cc1O[C@H]1CO[C@@H]2[C@H]1OC[C@@H]2N` had a concentration for half-maximal inhibition (IC50) of under 50 nM.

As to `COc1cc2c(Nc3ccc(Cl)c(Cl)c3F)ncnc2cc1OC[C@@H]1CN2CCC[C@H]2CO1`, the concentration for half-maximal inhibition (IC50) is under 50 nM.

For the molecule `COc1cc2c(Nc3ccc(Cl)c(Cl)c3)ncnc2cc1OCC1CN(C(=O)CCC(C)C)CCO1` (stereo unspecified), the half-inhibitory concentration (IC50) was under 50 nM.

In turn, `CCN1CCN(c2noc(COc3cc4ncnc(Nc5ccc(Cl)c(Cl)c5)c4cc3OC)n2)CC1` gave an IC50 of under 50 nM.

For the molecule `COc1cc2c(Nc3ccc(Cl)c(Cl)c3)ncnc2cc1OCc1nc(N2CCN(C)CC2)no1`, the half-maximal inhibitory concentration (IC50) is under 50 nM.

Molecule `CC[C@@H](C)CN1CCOC(COc2cc3ncnc(Nc4ccc(Cl)c(Cl)c4)c3cc2OC)C1` (stereo partly specified) displayed an IC50 of under 50 nM.

Regarding `COc1cc2c(Nc3ccc(Cl)c(Cl)c3)ncnc2cc1OCC1CN(C(=NC#N)N2CCCC2)CCO1` (stereo unspecified), the IC50 is under 50 nM.

In the case of `COc1cc2c(Nc3cc(C)cc(C)c3)ncnc2cc1O[C@@H]1CO[C@@H]2[C@H]1OC[C@H]2F`, the concentration for half-maximal inhibition (IC50) is under 50 nM.

On to `COc1cc2c(Nc3ccc(Br)c(Cl)c3)ncnc2cc1O[C@H]1CO[C@@H]2CCO[C@H]12`, for which the IC50 was under 50 nM.

As to `COc1cc2c(Nc3ccc(Cl)c(Cl)c3)ncnc2cc1OC[C@@H]1O[C@@H](OC)[C@@H](O)[C@@H](O)[C@H]1O`, the IC50 was under 50 nM.

In turn, `COc1cc2c(Nc3ccc(Br)cc3F)ncnc2cc1O[C@@H]1CO[C@@H]2[C@H]1OC[C@H]2F` showed a concentration for half-maximal inhibition (IC50) of under 50 nM.

The molecule `COc1cc2c(Nc3ccc(Br)c(Cl)c3)ncnc2cc1O[C@H]1CO[C@@H]2[C@H]1OC[C@@H]2N1CCOCC1` displayed an IC50 of under 50 nM.

For `CCCCCCCN1CCOC(COc2cc3ncnc(Nc4ccc(Cl)c(Cl)c4)c3cc2OC)C1` (stereo unspecified), the half-inhibitory concentration (IC50) is under 50 nM.

As for `CCCN1CCOC(COc2cc3ncnc(Nc4ccc(Cl)c(Cl)c4)c3cc2OC)C1` (stereo unspecified), the 50% inhibitory concentration (IC50) is under 50 nM.

Molecule `COc1cc2c(Nc3cc(Cl)c(Cl)cc3F)ncnc2cc1OC[C@@H]1CN2CCC[C@H]2CO1` returned a 50% inhibitory concentration (IC50) of under 50 nM.

On to `COc1cc2c(Nc3ccc(Cl)c(Cl)c3)ncnc2cc1OCC1CN(CC2CCCCC2)CCO1` (stereo unspecified), for which the IC50 is under 50 nM.

Take `COc1cc2c(Nc3ccc(Cl)c(Cl)c3)ncnc2cc1OCC1CN(C)CCN1C` (stereo unspecified): the IC50 is under 50 nM.

`COc1cc2c(Nc3ccc(Cl)c(Cl)c3F)ncnc2cc1OC[C@@H]1CN2CCCC[C@H]2C(=O)N1` displayed an IC50 of under 50 nM.

In turn, `COc1cc2c(Nc3ccc(Cl)c(Cl)c3)ncnc2cc1OCc1nccn1Cc1ccccc1` showed a half-maximal inhibitory concentration (IC50) of under 50 nM.

Molecule `COc1cccc(CC(=O)N2CCOC(COc3cc4ncnc(Nc5ccc(Cl)c(Cl)c5)c4cc3OC)C2)c1` (stereo unspecified) yielded an IC50 of under 50 nM.

In turn, `COc1cc2c(Nc3ccc(Cl)c(Cl)c3)ncnc2cc1OC1CO[C@@H]2[C@@H](OC)CO[C@H]12` (stereo partly specified) displayed an IC50 of under 50 nM.

`COc1cc2c(Nc3ccc(Cl)c(Cl)c3)ncnc2cc1OCC1CN(C(=O)Cc2ccc(Cl)cc2)CCO1` (stereo unspecified) came in with an IC50 of under 50 nM.

As for `CC(C)Oc1cc2c(Nc3ccc(Cl)c(Cl)c3)ncnc2cc1OCC1CNCCO1` (stereo unspecified), the half-inhibitory concentration (IC50) is under 50 nM.

Regarding `COc1cc2c(Nc3ccc(Br)c(Cl)c3F)ncnc2cc1OC[C@@H]1CN(C)CC(=O)N1C`, the IC50 was under 50 nM.

The molecule `COc1cc2c(Nc3ccc(Cl)c(Cl)c3)ncnc2cc1OCc1noc(C2CCCN2C)n1` (stereo unspecified) registered an IC50 of under 50 nM.

Molecule `COc1cc2c(Nc3ccc(Cl)c(Cl)c3)ncnc2cc1OCc1cc(F)cc2c1OCOC2` registered an IC50 of under 50 nM.

`COc1cc2c(Nc3ccc(Cl)c(Cl)c3)ncnc2cc1OCC1CN(C(N)=NC#N)CCCO1` (stereo unspecified) gave a 50% inhibitory concentration (IC50) of under 50 nM.

With `COc1cc2c(Nc3ccc(Cl)c(Cl)c3)ncnc2cc1OCCNC1CC2CCC(C1)N2C` (stereo unspecified), the IC50 is under 50 nM.

Molecule `COc1cc2c(Nc3ccc(Br)c(Cl)c3Cl)ncnc2cc1O[C@H]1CO[C@H]2[C@@H]1OC[C@@H]2OC` came in with an IC50 of under 50 nM.

With `COc1cc2c(Nc3ccc(Br)c(Cl)c3)ncnc2cc1O[C@@H]1CO[C@@H]2[C@H]1OC[C@@H]2OS(C)(=O)=O`, the IC50 is under 50 nM.

In turn, `COc1cc2c(Nc3ccc(C)c(Cl)c3Cl)ncnc2cc1OCC1CN(C)CCO1` (stereo unspecified) came in with an IC50 of under 50 nM.

`COc1cc2c(Nc3ccc(Cl)c(C)c3)ncnc2cc1OCC1CN(C)CCO1` (stereo unspecified): the IC50 is under 50 nM.

For the molecule `CCN1CCN(c2nc(COc3cc4ncnc(Nc5ccc(Cl)c(Cl)c5)c4cc3OC)cs2)CC1`, the half-inhibitory concentration (IC50) is under 50 nM.

Turning to `COc1cc2c(Nc3ccc(Br)cc3Cl)ncnc2cc1O[C@@H]1CO[C@@H]2[C@H]1OC[C@H]2F`, the half-maximal inhibitory concentration (IC50) is under 50 nM.

In turn, `CN1CCOC(COc2cc3ncnc(Nc4ccc(Cl)c(Cl)c4)c3cc2O)C1` (stereo unspecified) showed an IC50 of under 50 nM.

Regarding `COCCN1CCCOC(COc2cc3ncnc(Nc4ccc(Cl)c(Cl)c4)c3cc2OC)C1` (stereo unspecified), the IC50 is under 50 nM.
